From the supplement of paper PMC12463676, “Small-molecule dissolution of stress granules by redox modulation benefits ALS models” (Nature Chemical Biology, 2025)

Assays:
potassium arsenate = compound: O=[As]([O-])(O)O.[K+] [potassium arsenate]; assay: thermal stability z-score vs DMSO; higher = more thermally stabilized by treatment; details: HeLa; arsenate concentration 1 mM
Protocol: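 Cellular thermal proteome profiling in HeLa cells treated with 1 mM arsenate for 1 h (DMSO pretreatment), heated to ten temperatures (37-66.3 °C). Soluble protein was quantified by TMT mass spectrometry relative to DMSO controls; the thermal stability score was transformed to a z-score; mean of n = 3 experiments.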

lipoamide = compound: NC(=O)CCCCC1CCSS1 [lipoamide]; assay: as above; details: HeLa, lipoamide concentration 100 µM
Protocol: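 Cellular thermal proteome profiling in HeLa cells. Cells were treated with 100 µM lipoamide for 1 h, with or without 1 mM arsenate for a further 1 h, then heated to ten temperatures (37-66.3 °C), and soluble protein was quantified by TMT mass spectrometry relative to 0.1% DMSO controls. The thermal stability score (sum of log2 fold changes minus the abundance score) was transformed to a z-score; mean of n = 3 experiments.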

[1] = arsenate co-treatment: 1 mM arsenate 1 h
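Note: each temperature applied for 3 min, abundance score taken as mean log2 fold change at the two lowest temperatures, z-score obtained by mean subtraction and division by SD.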

Sequence of UniProt Q13895 (Q13895 whole entry): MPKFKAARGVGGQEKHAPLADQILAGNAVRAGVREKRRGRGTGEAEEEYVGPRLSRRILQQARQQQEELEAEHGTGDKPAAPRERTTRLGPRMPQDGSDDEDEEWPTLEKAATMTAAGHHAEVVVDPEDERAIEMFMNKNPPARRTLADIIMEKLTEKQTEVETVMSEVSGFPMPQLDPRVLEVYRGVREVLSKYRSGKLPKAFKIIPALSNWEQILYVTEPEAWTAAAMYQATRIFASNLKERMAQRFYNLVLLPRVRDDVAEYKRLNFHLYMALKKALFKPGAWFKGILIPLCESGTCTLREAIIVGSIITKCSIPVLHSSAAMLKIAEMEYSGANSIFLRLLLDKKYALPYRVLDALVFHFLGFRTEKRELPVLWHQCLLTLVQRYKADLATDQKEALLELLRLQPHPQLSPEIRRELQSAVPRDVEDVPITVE
Sequence of UniProt Q92994 (Q92994 whole entry): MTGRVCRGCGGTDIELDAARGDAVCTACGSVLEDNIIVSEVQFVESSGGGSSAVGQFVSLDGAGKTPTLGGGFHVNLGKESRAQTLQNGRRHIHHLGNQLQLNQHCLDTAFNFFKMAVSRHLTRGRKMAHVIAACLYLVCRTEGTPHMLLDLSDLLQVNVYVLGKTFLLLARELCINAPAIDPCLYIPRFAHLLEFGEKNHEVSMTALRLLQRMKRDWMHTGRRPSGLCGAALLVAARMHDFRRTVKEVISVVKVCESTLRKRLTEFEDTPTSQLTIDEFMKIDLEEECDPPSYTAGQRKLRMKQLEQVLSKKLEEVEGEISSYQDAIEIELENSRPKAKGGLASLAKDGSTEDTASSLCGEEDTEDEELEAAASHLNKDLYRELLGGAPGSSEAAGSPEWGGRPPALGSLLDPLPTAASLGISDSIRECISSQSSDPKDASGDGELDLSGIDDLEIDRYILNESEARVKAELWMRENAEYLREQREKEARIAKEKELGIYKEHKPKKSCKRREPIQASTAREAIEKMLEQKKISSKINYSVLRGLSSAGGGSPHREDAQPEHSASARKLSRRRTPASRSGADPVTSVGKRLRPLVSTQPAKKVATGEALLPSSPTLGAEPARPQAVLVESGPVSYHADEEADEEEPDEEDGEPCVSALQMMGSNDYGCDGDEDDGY
Sequence of UniProt Q9H0C5 (Q9H0C5 whole entry): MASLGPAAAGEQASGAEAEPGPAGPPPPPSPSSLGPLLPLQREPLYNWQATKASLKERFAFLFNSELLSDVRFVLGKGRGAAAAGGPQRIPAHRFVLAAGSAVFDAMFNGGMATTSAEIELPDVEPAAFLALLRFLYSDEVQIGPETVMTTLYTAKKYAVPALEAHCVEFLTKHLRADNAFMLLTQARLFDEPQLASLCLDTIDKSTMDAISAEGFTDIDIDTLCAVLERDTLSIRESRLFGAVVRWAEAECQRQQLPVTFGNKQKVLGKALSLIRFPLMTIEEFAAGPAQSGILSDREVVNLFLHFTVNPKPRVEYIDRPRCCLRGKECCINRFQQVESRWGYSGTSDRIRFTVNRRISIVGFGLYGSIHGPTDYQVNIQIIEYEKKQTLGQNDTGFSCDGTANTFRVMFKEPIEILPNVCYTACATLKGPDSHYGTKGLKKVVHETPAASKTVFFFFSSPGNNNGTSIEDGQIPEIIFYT
Sequence of UniProt Q9H2G9 (Q9H2G9 whole entry): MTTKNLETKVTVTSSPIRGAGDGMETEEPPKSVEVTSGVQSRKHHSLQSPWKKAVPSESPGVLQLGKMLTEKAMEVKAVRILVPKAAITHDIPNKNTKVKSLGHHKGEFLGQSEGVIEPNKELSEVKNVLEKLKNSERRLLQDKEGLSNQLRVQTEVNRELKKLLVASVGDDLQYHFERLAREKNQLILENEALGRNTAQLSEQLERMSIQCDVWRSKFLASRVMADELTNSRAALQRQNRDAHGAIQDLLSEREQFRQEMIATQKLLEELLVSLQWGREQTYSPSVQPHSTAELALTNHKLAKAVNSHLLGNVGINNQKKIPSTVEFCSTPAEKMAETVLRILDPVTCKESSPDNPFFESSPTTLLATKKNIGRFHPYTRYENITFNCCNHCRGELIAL
Sequence of UniProt Q8WY22 (Q8WY22 whole entry): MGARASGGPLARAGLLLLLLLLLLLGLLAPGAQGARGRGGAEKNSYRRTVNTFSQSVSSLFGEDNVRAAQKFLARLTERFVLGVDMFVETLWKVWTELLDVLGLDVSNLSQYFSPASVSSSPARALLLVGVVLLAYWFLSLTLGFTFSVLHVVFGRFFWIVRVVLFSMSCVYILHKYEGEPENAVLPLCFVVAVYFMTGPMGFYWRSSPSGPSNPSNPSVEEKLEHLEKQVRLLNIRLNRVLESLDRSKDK
Sequence of UniProt P78410 (P78410 whole entry): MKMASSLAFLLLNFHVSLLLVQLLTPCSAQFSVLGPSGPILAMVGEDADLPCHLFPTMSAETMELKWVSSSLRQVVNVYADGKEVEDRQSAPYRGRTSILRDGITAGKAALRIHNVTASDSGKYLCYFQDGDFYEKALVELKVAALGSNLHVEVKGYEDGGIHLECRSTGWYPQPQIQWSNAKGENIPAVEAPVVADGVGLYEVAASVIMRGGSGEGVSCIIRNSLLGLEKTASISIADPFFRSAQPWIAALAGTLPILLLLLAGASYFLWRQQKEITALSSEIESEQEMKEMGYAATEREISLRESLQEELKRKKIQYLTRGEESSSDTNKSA
Sequence of UniProt O43684 (O43684 whole entry): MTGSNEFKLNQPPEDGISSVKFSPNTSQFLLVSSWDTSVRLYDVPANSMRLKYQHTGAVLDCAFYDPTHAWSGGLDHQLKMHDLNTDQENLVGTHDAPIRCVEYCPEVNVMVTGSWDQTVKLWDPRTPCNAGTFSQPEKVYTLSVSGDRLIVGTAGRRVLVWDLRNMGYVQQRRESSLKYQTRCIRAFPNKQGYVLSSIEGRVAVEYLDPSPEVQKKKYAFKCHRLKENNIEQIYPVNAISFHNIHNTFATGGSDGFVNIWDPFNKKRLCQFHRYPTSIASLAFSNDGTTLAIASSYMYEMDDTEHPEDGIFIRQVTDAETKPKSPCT
Sequence of UniProt Q9H0E9 (Q9H0E9 whole entry): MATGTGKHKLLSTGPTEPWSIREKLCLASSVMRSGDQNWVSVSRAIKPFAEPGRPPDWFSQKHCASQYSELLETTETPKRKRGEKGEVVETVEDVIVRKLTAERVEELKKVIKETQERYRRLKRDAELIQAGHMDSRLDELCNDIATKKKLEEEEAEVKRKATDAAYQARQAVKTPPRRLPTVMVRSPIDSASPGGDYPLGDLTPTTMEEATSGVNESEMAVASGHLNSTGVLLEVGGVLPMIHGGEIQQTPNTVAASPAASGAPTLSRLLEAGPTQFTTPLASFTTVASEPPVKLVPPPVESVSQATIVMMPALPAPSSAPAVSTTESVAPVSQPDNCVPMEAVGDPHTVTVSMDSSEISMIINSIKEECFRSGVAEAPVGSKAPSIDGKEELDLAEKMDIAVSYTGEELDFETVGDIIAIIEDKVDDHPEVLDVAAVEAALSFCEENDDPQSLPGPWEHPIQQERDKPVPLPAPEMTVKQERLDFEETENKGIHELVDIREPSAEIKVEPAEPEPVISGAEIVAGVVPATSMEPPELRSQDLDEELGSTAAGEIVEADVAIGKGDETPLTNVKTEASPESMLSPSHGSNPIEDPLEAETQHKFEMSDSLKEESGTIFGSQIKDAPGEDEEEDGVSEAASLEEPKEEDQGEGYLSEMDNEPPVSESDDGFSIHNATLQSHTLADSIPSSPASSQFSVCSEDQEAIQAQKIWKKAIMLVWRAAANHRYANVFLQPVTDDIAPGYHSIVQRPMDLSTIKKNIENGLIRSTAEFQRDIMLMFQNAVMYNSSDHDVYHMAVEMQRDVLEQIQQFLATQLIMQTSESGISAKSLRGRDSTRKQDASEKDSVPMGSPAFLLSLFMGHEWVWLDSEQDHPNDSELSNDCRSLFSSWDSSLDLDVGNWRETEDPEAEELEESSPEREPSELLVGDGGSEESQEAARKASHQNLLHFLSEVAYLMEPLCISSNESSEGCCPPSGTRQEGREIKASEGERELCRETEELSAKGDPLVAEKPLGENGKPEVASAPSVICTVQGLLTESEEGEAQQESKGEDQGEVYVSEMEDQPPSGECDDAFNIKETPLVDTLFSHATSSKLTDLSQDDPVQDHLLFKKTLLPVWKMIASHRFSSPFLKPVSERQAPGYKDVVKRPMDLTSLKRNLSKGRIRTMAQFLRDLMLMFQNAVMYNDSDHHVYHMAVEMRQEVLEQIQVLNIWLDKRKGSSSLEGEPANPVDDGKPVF
Sequence of UniProt O95861 (O95861 whole entry): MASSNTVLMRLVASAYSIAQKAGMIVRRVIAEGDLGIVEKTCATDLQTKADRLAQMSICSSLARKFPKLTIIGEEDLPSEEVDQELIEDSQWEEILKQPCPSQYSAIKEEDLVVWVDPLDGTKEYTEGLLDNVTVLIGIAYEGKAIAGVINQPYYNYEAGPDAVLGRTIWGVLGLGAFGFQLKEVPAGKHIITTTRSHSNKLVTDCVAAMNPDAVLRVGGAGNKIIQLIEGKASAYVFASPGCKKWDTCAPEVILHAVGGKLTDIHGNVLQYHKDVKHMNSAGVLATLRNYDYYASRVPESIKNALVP
Sequence of UniProt P07738 (P07738 whole entry): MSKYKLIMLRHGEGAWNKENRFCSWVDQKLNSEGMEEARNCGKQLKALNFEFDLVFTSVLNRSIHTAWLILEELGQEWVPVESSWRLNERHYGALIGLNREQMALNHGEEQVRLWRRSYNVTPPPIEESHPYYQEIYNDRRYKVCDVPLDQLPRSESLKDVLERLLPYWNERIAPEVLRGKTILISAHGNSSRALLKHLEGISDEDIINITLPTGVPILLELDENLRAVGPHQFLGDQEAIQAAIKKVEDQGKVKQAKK
Sequence of UniProt Q9NUP1 (Q9NUP1 whole entry): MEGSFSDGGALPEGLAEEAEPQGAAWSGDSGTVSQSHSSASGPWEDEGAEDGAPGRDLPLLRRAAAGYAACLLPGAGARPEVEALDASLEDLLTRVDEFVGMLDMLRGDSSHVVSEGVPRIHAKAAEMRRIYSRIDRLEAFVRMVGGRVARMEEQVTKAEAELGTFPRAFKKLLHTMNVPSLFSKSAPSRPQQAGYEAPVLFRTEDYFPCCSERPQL

Target	thermal stability z-score (potassium arsenate)	thermal stability z-score (lipoamide; [1])	thermal stability z-score (lipoamide; arsenate co-treatment: none)
BLOC1S1 (UniProt P78537)	-0.255	-0.0484	0.202
BLOC1S2 (UniProt Q6QNY1)	1.61	2.75	1.1
BLOC1S3 (UniProt Q6QNY0)	0.0424	0.923	0.625
BLOC1S4 (UniProt Q9NUP1)	0.401	1.47	0.395
BLOC1S5 (UniProt Q8TDH9)	0.446	0.19	0.0962
BLVRA (UniProt P53004)	-0.0313	0.283	-0.236
BLVRB (UniProt P30043)	1.14	0.863	-0.0398
BLZF1 (UniProt Q9H2G9)	-0.103	-0.0966	0.122
BMP1 (UniProt P13497)	0.347	0.492	0.427
BMP2K (UniProt Q9NSY1)	0.122	-0.986	-0.217
BMS1 (UniProt Q14692)	0.723	0.575	0.482
BNIP1 (UniProt Q12981)	0.0814	0.261	-0.294
BNIP2 (UniProt Q12982)	0.641	1.13	0.0699
BNIP3 (UniProt Q12983)	2.44	0.679	0.193
BOD1L1 (UniProt Q8NFC6)	-0.589	0.583	0.352
BOLA2 (UniProt Q9H3K6)	0.583	0.16	0.49
BOLA3 (UniProt Q53S33)	0.0193	-0.103	-0.245
BOP1 (UniProt Q14137)	0.0419	-1.64	-0.108
BORCS5|LOH12CR1	0.518	1.36	1.29
BPGM (UniProt P07738)	-1.82	-1.9	-0.479
BPHL (UniProt Q86WA6)	-1.21	-0.428	-0.368
BPNT1 (UniProt O95861)	-1.66	-0.0659	-0.197
BPTF (UniProt Q12830)	-0.181	0.137	0.144
BRAF (UniProt P15056)	0.328	-0.207	0.176
BRAP (UniProt Q7Z569)	0.485	-0.31	0.051
BRAT1 (UniProt Q6PJG6)	0.562	-0.267	-0.15
BRCC3 (UniProt P46736)	0.468	-0.0792	0.172
BRD2 (UniProt P25440)	-0.153	-0.0745	0.075

Target	thermal stability z-score (potassium arsenate)	thermal stability z-score (lipoamide; [1])	thermal stability z-score (lipoamide; arsenate co-treatment: none)
BRD3 (UniProt Q15059)	-0.279	0.0121	-0.107
BRD4 (UniProt O60885)	-0.724	0.496	0.462
BRD7 (UniProt Q9NPI1)	-0.517	-0.355	-0.169
BRD8 (UniProt Q9H0E9)	-1.06	0.111	-0.0134
BRD9 (UniProt Q9H8M2)	0.496	0.218	0.153
BRE (UniProt Q9NXR7)	0.319	0.462	-0.15
BRF1 (UniProt Q92994)	0.035	-0.0333	-0.111
BRI3BP (UniProt Q8WY22)	-0.544	0.227	0.0879
BRIX1 (UniProt Q8TDN6)	1.3	0.442	-0.0247
BROX (UniProt Q5VW32)	-0.0457	1.03	1.02
BSDC1 (UniProt Q9NW68)	-0.209	-0.585	-0.361
BSG (UniProt P35613)	0.265	0.714	0.573
BST2 (UniProt Q10589)	0.172	0.265	0.606
BTAF1 (UniProt O14981)	-0.192	0.085	0.175
BTBD1 (UniProt Q9H0C5)	0.0567	-0.0349	0.00713
BTBD10 (UniProt Q9BSF8)	-0.162	0.00662	0.0899
BTF3 (UniProt P20290)	0.076	0.457	0.48
BTF3L4 (UniProt Q96K17)	-0.154	0.212	0.17
BTN2A1 (UniProt Q7KYR7)	0.0455	-0.659	-0.638
BTN3A2 (UniProt P78410)	-1.15	0.00462	0.0294
BUB1 (UniProt O43683)	0.029	-0.0469	0.0303
BUB1B (UniProt O60566)	0.247	0.0397	0.232
BUB3 (UniProt O43684)	-0.833	-0.0475	-0.134
BUD31 (UniProt P41223)	-3.38	0.0866	0.568
BYSL (UniProt Q13895)	0.424	-0.197	0.349
BZW1 (UniProt Q7L1Q6)	0.483	0.452	0.578
BZW2 (UniProt Q9Y6E2)	-0.183	0.428	0.313
